These results are taken from patent US8563547B2, “(6,7-dihydro-2-nitro-5H-imidazol[2,1-b][1,3]oxazin-6-yl) amide compounds, preparation methods and uses thereof” (Shanghai Sun-Sail Pharmaceutical Science & Technology Co., …, priority 2010, dated 2013).

Test in all cases: microbe, parasite or virus in culture
Common to all, as to assay type: cell-based, Mycobacterium tuberculosis

Assay [1] concerns strain 242: resistant to isoniazide (WHO QC bacterium). To be noted: for MIC: Mycobacterium tuberculosis, read-out: drug-resistance bacteria MIC, 242 (H mono-resistance); for MIC value, times as that of PA-824, isoniazide resistance 242: strain 242, relative to PA-824.
The test system of assay [2] is strain 246: resistant to streptomycin (WHO QC bacterium). The conditions noted are these: for MIC: Mycobacterium tuberculosis, read-out: drug-resistance bacteria MIC, 246 (S mono-resistance); for MIC value, times as that of PA-824, streptomycin resistance 246: strain 246, relative to PA-824.
Assay [3] deals with strain 261: resistant to rifampicin (WHO QC bacterium). To be noted: for MIC: Mycobacterium tuberculosis, read-out: drug-resistance bacteria MIC, 261 (R mono-resistance); for MIC value, times as that of PA-824, rifampicin resistance 261: strain 261, relative to PA-824.

Molecules are shown by their SMILES. Values after ≈ are worked out from the molar mass of the structure shown.

For the compound `O=C(CN1CCC(Oc2ccc(OC(F)(F)F)cc2)CC1)N[C@@H]1COc2nc([N+](=O)[O-])cn2C1` [Compound 1, (S)-N-(6,7-dihydro-2-nitro-5H-imidazo [2,1-b][1,3]oxazin-6-yl)-2-(4-(4-(trifluoromethoxy)phenoxy)piperid-1-yl)acetamide], in assay [1], the MIC is 0.5 µg/mL (≈ 1.03 µM) and the “MIC value, times as that of PA-824, isoniazide resistance 242” value came out at 2 times. Besides, in assay [2], the MIC is less than 0.0312 µg/mL and the “MIC value, times as that of PA-824, streptomycin resistance 246” value was found to be 16 times. For the same compound, in assay [3], the MIC is less than 0.0312 µg/mL and the “MIC value, times as that of PA-824, rifampicin resistance 261” value is on record as 16 times.

For `O=C(CCN1CCC(Oc2ccc(OC(F)(F)F)cc2)CC1)N[C@@H]1COc2nc([N+](=O)[O-])cn2C1` [Compound 22, (S)-N-(6,7-dihydro-2-nitro-5H-imidazo [2,1-b][1,3]oxazin-6-yl)-3-(4-(4-(trifluoromethoxy)phenoxy)piperid-1-yl)propanamide], in assay [1], the MIC was determined as 0.5 µg/mL (≈ 1 µM) and the “MIC value, times as that of PA-824, isoniazide resistance 242” value turned out to be 2 times. Moreover, in assay [2], the MIC is 0.0625 µg/mL (≈ 0.125 µM) and the “MIC value, times as that of PA-824, streptomycin resistance 246” value came to 8 times. Further, in assay [3], the MIC was less than 0.0312 µg/mL and the “MIC value, times as that of PA-824, rifampicin resistance 261” value came out at 16 times.

For the compound `O=[N+]([O-])c1cn2c(n1)OC[C@@H](OCc1ccc(OC(F)(F)F)cc1)C2` [PA-824, reference compound], the results for the MIC in assay [1], in assay [2] and in assay [3] were 1 µg/mL (≈ 2.78 µM), 0.5 µg/mL (≈ 1.39 µM) and 0.5 µg/mL (≈ 1.39 µM), respectively.
